Tests used:
mice [1] = assay: Acetic acid induced writhing test (AA writhing test); type: in vivo; settings: Mus musculus, 0.5 h, 30sc, reduction in number of writhing vs control group, 0.8% acetic acid ip 30 min after compound
Description: Acetic Acid Induced Writhing Test (AA Writhing Test)
The Acetic acid-induced writhing test is a well-established nociceptive test using a chemical stimulus. Although several animal models of nociceptive tests have been developed to examine and compare the anti-nociceptive effects of different drugs, the anti-nociceptive effects of antidepressants appear to be test-dependent. Indeed, the acetic acid-induced writhing test is more sensitive to antidepressants than other tests using thermal, mechanical or electrical stimuli.
The animals were subcutaneously treated with the test compound with an injection volume of 10 ml/kg. The group treated with 30% PEG400 or saline served as a control group. Thirty minutes later, the mice were intraperitoneally treated with 0.8% (v/v) acetic acid. Each mouse was then placed in a cage for individual observation. The writhing numbers for 10 minutes were counted. The writhe is operationally defined as a contraction of the abdomen followed by stretching of the hind limbs. The potent ability of the compounds was determined as percent value of reduction in the number of writhing comparing to the control group.

mice [2] = assay: Marble burying test; type: in vivo; settings: reduction in number of marbles buried vs control group, 30 min after treatment
Description: The Marble burying test is a screening tool for putative anxiolytics. In this test, control mice naturally bury glass marbles in the cage bedding and the administration of anxiolytic compounds, including Diazepam, reduces the number of buried marbles. Positive compounds in the marble burying test including selective serotonin reuptake inhibitor may be especially beneficial to obsessive-compulsive disorder.
A group of mice was intraperitoneally treated with test compound dissolved in 30% PEG400 with an injection volume of 10 ml/kg. The group treated with only 30% PEG400 served as a control group. Thirty minutes after the treatment, the animals were individually placed in a polycarbonate cage which was same as used for animal housing with an open top located within a quiet room. Each cage consisted of ⅛ inch corn bedding 5 cm deep. Twenty four clean glass marbles (15 mm diameter) were evenly spaced in four rows of six on top of the bedding. Each mouse was left in the cage for 30 minutes and the number of marbles buried (buried more than ½ or ⅔) was counted. The potent ability of the compounds was determined as percent value of reduction in the number of marbles buried comparing to the control group.

mice [3] = assay: Forced swimming test in mice (FST); type: in vivo; settings: Mus musculus, 0.5 h, 30ip, reduction in duration of immobility vs control group, 30 min after administration
Method: Forced swimming Test in Mice (FST)
The Forced swimming test is an animal model based on the rodent's behavioral repertoire for screening drugs with potential antidepressant activity. As in several other models used for this goal, an uncontrollable stress stimulus produces behavioral changes that are sensitive to antidepressant treatment.
The mice were intraperitoneally treated with the test compound with an injection volume of […]. The group treated with 30% PEG400 served as a control group. Thirty minutes following administration, mice were individually forced to swim in a transparent glass vessel (14 cm high, 11.5 cm in diameter) filled with 10 cm of water at 25° C. The total duration of immobility (second) was measured during the last 4 minutes of a single 6-min test session. Mice were considered immobile when they made no further attempts to escape other than the movements necessary to keep their heads above the water. The potent ability of the compounds was determined as percent value of reduction in the duration of immobility comparing to the control group.

[4] = target: T1, human recombinant dopamine transporter (Homo sapiens, UniProt Q01959); assay: Dopamine transporter reuptake inhibition assay ([3H]Dopamine uptake); type: cell-based; settings: CHO-K1 cells with human recombinant dopamine transporter; for inhibition at 0.1 µM: 100 nM, read-out: Inhibition % at 100 nM DA reuptake
T1 construct: expressed in transfected cells; host or cells: CHO-K1
Method: Dopamine Transporter Reuptake Inhibition Assay
CHO-K1 cells with human recombinant dopamine transporter were plated. Test compounds were pre-incubated with cells (4×10^5/ml) in modified Tris-HEPES buffer pH 7.1 for 20 minutes at 25° C. and then they were incubated for additional 10 minutes after 50 nM of [^3H]Dopamine was added. A lysate is obtained from solubilized cells and counted to determine [^3H]Dopamine uptake. Reduction of [^3H]Dopamine uptake by 50 percent or more (≧50%) relative to 10 μM nomifensine indicates significant inhibitory activity.

[5] = target: T2, human recombinant norepinephrine transporter (Homo sapiens, UniProt P23975); assay: Norepinephrine transporter reuptake inhibition assay ([3H]Norepinephrine uptake); type: cell-based; settings: for inhibition at 0.1 µM: 100 nM, MDCK cells with human recombinant norepinephrine transporter, read-out: Inhibition % at 100 nM NE reuptake
T2 construct: expressed in transfected cells; host or cells: MDCK
Method: Norepinephrine Transporter Reuptake Inhibition Assay
MDCK cells with stably expressed human recombinant norepinephrine transporter were plated one day. Test compounds were pre-incubated with cells (2×10^5/ml) in modified Tris-HEPES buffer pH 7.1 for 20 minutes at 25° C. and then they were incubated for additional 10 minutes after 25 nM of [^3H]Norepinephrine was added. A lysate was obtained from solubilized cells and the filtered lysate was counted to determine [^3H]Norepinephrine uptake. Reduction of [^3H]Norepinephrine uptake by 50 percent or more (≧50%) relative to 10 μM desipramine indicates significant inhibitory activity.

[6] = target: T3, human serotonin transporter (Homo sapiens, UniProt P31645); assay: Serotonin transporter reuptake inhibition assay ([3H]Serotonin uptake); type: cell-based; settings: recombinant HEK-293 cells with human serotonin transporter; for inhibition at 0.1 µM: HEK293, 100 nM, read-out: Inhibition % at 100 nM 5-HT reuptake
T3 construct: expressed in transfected cells; host or cells: HEK-293
Method: Serotonin Transporter Reuptake Inhibition Assay
The recombinant HEK-293 cells with human serotonin transporter were plated. Test compounds described in table 1 were pre-incubated with cells (2×10^5/ml) in modified Tris-HEPES buffer pH 7.1 for 20 minutes at 25° C. and then they were incubated for additional 10 minutes after 65 nM of [^3H]Serotonin was added. Bound cells were filtered and counted to determine [^3H]Serotonin uptake. Reduction of [^3H]Serotonin uptake by 50 percent or more (≧50%) relative to 10 μM fluoxetine indicates significant inhibitory activity.

T1 sequence (Q01959 whole entry): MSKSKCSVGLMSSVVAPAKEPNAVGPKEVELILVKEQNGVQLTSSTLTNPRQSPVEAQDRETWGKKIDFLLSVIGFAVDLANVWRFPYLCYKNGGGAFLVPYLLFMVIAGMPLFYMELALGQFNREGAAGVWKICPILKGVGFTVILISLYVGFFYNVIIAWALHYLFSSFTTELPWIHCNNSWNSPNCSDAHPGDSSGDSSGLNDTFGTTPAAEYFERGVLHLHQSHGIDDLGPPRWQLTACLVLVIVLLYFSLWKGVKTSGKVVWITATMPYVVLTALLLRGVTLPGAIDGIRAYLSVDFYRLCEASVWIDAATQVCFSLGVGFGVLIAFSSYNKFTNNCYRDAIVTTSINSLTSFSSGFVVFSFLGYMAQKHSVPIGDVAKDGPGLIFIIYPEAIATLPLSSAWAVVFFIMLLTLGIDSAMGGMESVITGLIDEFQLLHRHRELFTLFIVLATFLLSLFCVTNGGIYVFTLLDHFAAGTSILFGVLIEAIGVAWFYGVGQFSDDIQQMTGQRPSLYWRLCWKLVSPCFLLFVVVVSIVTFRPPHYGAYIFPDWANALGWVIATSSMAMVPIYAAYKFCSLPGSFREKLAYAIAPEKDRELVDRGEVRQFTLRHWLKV
T2 sequence (P23975 whole entry): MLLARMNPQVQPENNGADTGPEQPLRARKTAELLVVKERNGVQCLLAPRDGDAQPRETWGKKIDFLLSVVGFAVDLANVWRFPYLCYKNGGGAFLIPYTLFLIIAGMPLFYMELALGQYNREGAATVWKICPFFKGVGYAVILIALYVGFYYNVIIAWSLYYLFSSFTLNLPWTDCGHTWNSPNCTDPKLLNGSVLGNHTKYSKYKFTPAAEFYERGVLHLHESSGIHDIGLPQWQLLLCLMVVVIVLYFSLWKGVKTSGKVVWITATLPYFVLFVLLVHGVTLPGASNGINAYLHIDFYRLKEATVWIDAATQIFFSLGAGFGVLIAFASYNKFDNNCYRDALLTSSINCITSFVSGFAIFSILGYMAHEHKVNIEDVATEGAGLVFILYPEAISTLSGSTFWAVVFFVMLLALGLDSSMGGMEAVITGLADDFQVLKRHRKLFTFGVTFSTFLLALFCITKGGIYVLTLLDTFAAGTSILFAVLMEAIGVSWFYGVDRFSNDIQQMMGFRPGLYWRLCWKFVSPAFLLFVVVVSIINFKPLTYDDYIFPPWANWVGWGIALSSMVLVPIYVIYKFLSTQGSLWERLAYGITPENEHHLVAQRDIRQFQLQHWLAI
T3 sequence (P31645 whole entry): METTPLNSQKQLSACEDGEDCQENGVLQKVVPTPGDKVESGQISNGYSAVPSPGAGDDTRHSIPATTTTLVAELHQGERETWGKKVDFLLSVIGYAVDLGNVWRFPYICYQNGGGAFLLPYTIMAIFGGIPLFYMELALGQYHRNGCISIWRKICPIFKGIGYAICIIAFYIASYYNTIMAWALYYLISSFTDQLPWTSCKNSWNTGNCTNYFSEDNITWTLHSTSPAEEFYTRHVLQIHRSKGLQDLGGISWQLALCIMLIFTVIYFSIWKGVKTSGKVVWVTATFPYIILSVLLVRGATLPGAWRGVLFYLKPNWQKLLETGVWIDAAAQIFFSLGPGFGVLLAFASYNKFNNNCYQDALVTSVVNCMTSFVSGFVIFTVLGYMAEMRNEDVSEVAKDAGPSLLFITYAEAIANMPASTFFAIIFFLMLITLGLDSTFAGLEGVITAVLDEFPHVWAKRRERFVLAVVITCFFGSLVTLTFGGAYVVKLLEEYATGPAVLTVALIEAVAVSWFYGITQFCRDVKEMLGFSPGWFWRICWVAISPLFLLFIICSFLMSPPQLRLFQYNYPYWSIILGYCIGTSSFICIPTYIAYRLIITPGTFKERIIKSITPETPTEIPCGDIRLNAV

Row | SMILES | inhibition in vivo at 30 mg/kg (mice [1]) [%] | Reduction % at 30ip (mice [2]) [%] | inhibition in vivo at 30 mg/kg (mice [3]) [%] | inhibition at 0.1 µM [4] [%] | inhibition at 0.1 µM [5] [%] | inhibition at 0.1 µM [6] [%] | Inhibition % at 100 nM DA reuptake [4] [%] | Inhibition % at 100 nM NE reuptake [5] [%] | Inhibition % at 100 nM 5-HT reuptake [6] [%] | Reduction % (at 10ip) (mice [2]; 10ip) [%]
1 | CN(C)CCC(c1ccc(Cl)c(Cl)c1)n1ncnn1 (stereo not drawn) [Example 1, [3-(3,4-Dichloro-phenyl)-3-tetrazol-2-yl-propyl]-dimethyl-amine] | 55.3 | 54.8 | 24.9 | 58 | 37 | 27 |  |  |  | 
2 | CNCCC(c1ccc(Cl)c(Cl)c1)n1ncnn1 (stereo not drawn) [Example 2, [3-(3,4-Dichloro-phenyl)-3-tetrazol-2-yl-propyl]-methyl-amine] | 50.3 | 100 | 82.4 |  |  |  | 48 | 56 | 35 | 
3 | CN(C)CCC(c1ccc2ccccc2c1)n1ncnn1 (stereo not drawn) [Example 6, Dimethyl-(3-naphthalen-2-yl-3-tetrazol-2-yl-propyl)-amine] | 60.2 | 87.7 | 41.4 | 20 | 30 | 41 |  |  |  | 
4 | CN(C)CCC(c1ccc2cc(Cl)ccc2c1)n1ncnn1 (stereo not drawn) [Example 14, [3-(6-Chloro-naphthalen-2-yl)-3-tetrazol-2-yl-propyl]-dimethyl-amine] |  |  |  | 18 | 32 | 46 |  |  |  | 
5 | COc1ccc2cc(C(CCN(C)C)n3ncnn3)ccc2c1 (stereo not drawn) [Example 21, [3-(6-Methoxy-naphthalen-2-yl)-3-tetrazol-2-yl-propyl]-dimethyl-amine] |  |  |  | 36 | 39 | 44 |  |  |  | 
6 | CN(C)CCC(c1ccc2cc(F)ccc2c1)n1ncnn1 (stereo not drawn) [Example 50, [3-(6-Fluoro-naphthalen-2-yl)-3-tetrazol-2-yl-propyl]-dimethyl-amine] | 53.8 | 86.2 | 35 | 7 | 12 | 61 |  |  |  | 
7 | Cc1nnn(C(CCN(C)C)c2ccc3cc(F)ccc3c2)n1 (stereo not drawn) [Example 51, [3-(6-Fluoro-naphthalen-2-yl)-3-(5-methyl-tetrazol-2-yl)-propyl]-dimethyl-amine] | 51.4 | 72.4 | 24.5 | 6 | 10 | 61 |  |  |  | 
8 | CNCCC(c1ccc2ccccc2c1)n1ncnn1 (stereo not drawn) [Example 119, Methyl-(3-naphthalen-2-yl-3-tetrazol-2-yl-propyl)-amine] |  |  | 43.2 | 10 | 84 | 78 |  |  |  | 
9 | CNCCC(c1ccc2cc(C)ccc2c1)n1ncnn1 (stereo not drawn) [Example 122, Methyl-[3-(6-methyl-naphthalen-2-yl)-3-tetrazol-2-yl-propyl]-amine] |  |  | 43.7 | 3 | 55 | 93 |  |  |  | 
10 | CNCC[C@@H](c1ccc(Cl)c(Cl)c1)n1nnc(C)n1 [Example 129, (3S)-3-(3,4-dichlorophenyl)-N-methyl-3-(5-methyl-2H-tetrazol-2-yl)propan-1-amine] | 94.4 | 94.3 | 36.7 | 62 | 84 | 43 |  |  |  | 
11 | CNCCC(c1cc2ccccc2cc1OC)n1nnc(C)n1 (stereo not drawn) [Example 135, [3-(3-Methoxy-naphthalen-2-yl)-3-(5-methyl-tetrazol-2-yl)-propyl]-methyl-amine] |  |  |  | -1 | 17 | 47 |  |  |  | 
12 | CNCCC(c1ccc2cc(F)ccc2c1)n1ncnn1 (stereo not drawn) [Example 136, [3-(6-Fluoro-naphthalen-2-yl)-3-tetrazol-2-yl-propyl]-methyl-amine] |  |  |  | 6 | 25 | 59 |  |  |  | 
13 | CNCCC(c1ccc2cc(F)ccc2c1)n1nnc(C)n1 (stereo not drawn) [Example 137, [3-(6-Fluoro-naphthalen-2-yl)-3-(5-methyl-tetrazol-2-yl)-propyl]-methyl-amine] |  |  |  | 10 | 39 | 58 |  |  |  | 
14 | CNCCC(c1ccc2cc(OC)ccc2c1)n1ncnn1 (stereo not drawn) [Example 166, [3-(6-Methoxy-naphthalen-2-yl)-3-tetrazol-2-yl-propyl]-methyl-amine] |  |  | 28.9 | 4 | 70 | 88 |  |  |  | 
15 | CNCCC(c1ccc2cc(OC)ccc2c1)n1nnc(C)n1 (stereo not drawn) [Example 167, [3-(6-Methoxy-naphthalen-2-yl)-3-(5-methyl-tetrazol-2-yl)-propyl]-methyl-amine] | 52.1 |  | 17.9 | 3 | 84 | 82 |  |  |  | 56.9
16 | CNCC[C@@H](c1ccc2ccccc2c1)n1nnc(C)n1 [Example 188, (3S)-Methyl-[3-(5-methyl-tetrazol-2-yl)-3-naphthalen-2-yl-propyl]-amine] | 39.5 | 70.7 | 36.7 | 7 | 79 | 82 |  |  |  | 

From patent US8101642B2, “3-substituted propanamine compounds” (SK Biopharmaceuticals Co., Ltd., priority 2008, dated 2012)
